Laboratory results taken from US20250042904A1, “COMPOUNDS USED AS SRC INHIBITORS” (WIGEN BIOMEDICINE TECHNOLOGY (SHANGHAI) CO., LTD., priority 2021, published 2025).

How the values were obtained:
recombinant protein Src = recombinant protein Src (Homo sapiens (Human), UniProt P12931); test: In vitro assay for inhibiting Src kinase activity (biotin-labeled TK substrate, Sa-XL 665, Cryptate-labeled antibody); assay type: biochemical; conditions: read-out: IC50, inhibitory activity against recombinant protein Src
recombinant protein Src, sequence (P12931 whole entry, looked up): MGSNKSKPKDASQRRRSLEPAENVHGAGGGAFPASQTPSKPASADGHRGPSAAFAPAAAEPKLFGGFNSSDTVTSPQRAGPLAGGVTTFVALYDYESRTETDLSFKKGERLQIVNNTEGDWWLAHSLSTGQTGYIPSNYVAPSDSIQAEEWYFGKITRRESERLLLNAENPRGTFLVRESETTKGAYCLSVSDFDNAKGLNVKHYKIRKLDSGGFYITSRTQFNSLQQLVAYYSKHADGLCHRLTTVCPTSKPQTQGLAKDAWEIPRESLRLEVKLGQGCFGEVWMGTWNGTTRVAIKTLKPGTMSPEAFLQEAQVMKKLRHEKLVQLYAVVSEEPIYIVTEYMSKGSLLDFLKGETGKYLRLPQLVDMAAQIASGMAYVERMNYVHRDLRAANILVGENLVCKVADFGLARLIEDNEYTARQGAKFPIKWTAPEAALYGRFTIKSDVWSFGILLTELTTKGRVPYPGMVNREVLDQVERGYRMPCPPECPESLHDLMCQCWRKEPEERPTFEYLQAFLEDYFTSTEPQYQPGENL
Experimental: After the compound serially diluted with DMSO and a Src recombinant protein were incubated at room temperature for 10 min, the reaction was initiated by the addition of a biotin-labeled TK substrate and ATP. After the mixture was left to stand at room temperature for 40 min Sa-XL 665 and a Cryptate-labeled antibody were added. The fluorescence values at 615 nm and 665 nm were measured, and the ratio of 665 nm to 615 nm was calculated. The inhibition percentages and IC50 of the compounds were calculated compared to the DMSO group.

PC3 cells = test: In vitro anti-proliferative activity against PC3 cells (agarose, 7 days); assay type: cell-based; conditions: Homo sapiens, PC-3, 168 h, 7 days of incubation
Experimental: PC3 cells were mixed with 0.4% agarose at 1200 cells/well, and the mixture was seeded on 0.6% agarose. The compound serially diluted was added, and the cell number was measured after 7 days of incubation. The inhibition percentages and IC50 of the compounds were calculated compared to the DMSO group.

[1] = Stability experiment in aqueous hydrochloric acid solution pH 2 (HPLC); assay type: physicochemical; conditions: for Initial purity: before acid treatment (baseline); for Purity after stirring in an aqueous hydrochloric acid solution with a pH of 2 for 0.5 h: pH 2, room temperature
Experimental: 5 mg each of compound 59 and compound A was dissolved in an aqueous hydrochloric acid solution (5 mL) with a pH of 2. The mixture was stirred at room temperature. Samples were taken after 0.5 h for HPLC assay using the following assay conditions. The HPLC assay results are shown in Table 7. • Instrument: Agilent 1260 infinity 2 • Column: Xtimate C18 4.6*150 mm,3 um • Temperature:25° C. • Wave length:210 nm/254 nm • phase A: H2O (0.1% TFA) • phase B: MECN (0.1% TFA) • Gradient: […]

[2] = In vivo pharmacokinetic experiment in CD-1 female mice; conditions: mouse, plasma, CD-1 mice; for Vd: read-out: Vdss
Experimental: CD-1 female mice aged 7 to 10 weeks were intravenously administered and orally administered at a dose of 2 mg/kg and 10 mg/kg, respectively. The mice were fasted for at least 12 h before the administration and given food 4 h after the administration, and they were given ad libitum access to water during the experiment. On the day of the experiment, animals in the intravenous group were administered the corresponding compound by single injection via the tail vein at an administration volume of 10 mL/kg. Animals in the oral group were administered the corresponding compound by single intragastric injection at an administration volume of 10 mL/kg. The animals were weighed before administration, and the administration volume was calculated according to the body weight. The sample collection time was 0.083 h (injection group), 0.167 h, 0.5 h, 1 h, 2 h, 4 h, 8 h, and 24 h. About 200 μL of whole blood was collected through the submaxillary venous plexus at each time point and used to prepare plasma for concentration determination by high-performance liquid chromatography-tandem mass spectrometry (LC-MS/MS). All animals were euthanized with CO2 anesthesia after the PK samples were collected at the last time point. The plasma concentrations were processed using a non-compartmental model of Phoenix WinNonlin™ version 8.3 (Certara) pharmacokinetic software, and the pharmacokinetic parameters were calculated using a linear-log trapezoidal method.

[3] = system: PC3 subcutaneous xenograft tumor; test: In vivo pharmacodynamic study, mouse PC3 subcutaneous xenograft tumor model
Experimental: Each nude mouse was grafted subcutaneously with 10×10^6 PC3 cells. When the tumor grew to 100-200 mm^3, the compound was administered orally once a day, and the tumor volume was measured twice a week and at the end of treatment. Tumor growth inhibition rate of the compound was calculated according to the following equation: tumor growth inhibition (TGI)=1−(tumor volume on day 17 in treatment group−tumor volume on day 1 in treatment group)/(tumor volume on day 17 in vehicle control group−tumor volume on day 1 in […]).

| IC50 (recombinant protein Src) [nM] | Compound | other results |
| --- | --- | --- |
| 10 to 50 | CN(C)C1CCN(CCn2nc(-c3c(F)cc(NC(=O)OC(C)(C)C)c4c3OCO4)c3c(N)ncnc32)CC1 [Compound 18] |  |
| ≤ 10 | CC(C)(C)OC(=O)Nc1ccc(-c2nn(CCN3CCN(CCO)CC3)c3ncnc(N)c23)c2c1OCO2 [Compound 41] |  |
| 10 to 50 | CN(C)C1CCN(CCn2nc(-c3ncc(NC(=O)OC(C)(C)C)c4c3OCO4)c3c(N)ncnc32)CC1 [Compound 20] |  |
| ≤ 10 | COCCN1CCN(CCn2nc(-c3ccc(NC(=O)OC(C)(C)C)c4c3OCO4)c3c(N)ncnc32)CC1 [Compound 45] |  |
| ≤ 10 | CN(C1CC1)C1CCN(CCn2nc(-c3ccc(NC(=O)OC(C)(C)C)c4c3OCO4)c3c(N)ncnc32)CC1 [Compound 36] |  |
| ≤ 10 | COc1cc(-c2nn(CCN3CCC(N(C)C4CC4)CC3)c3ncnc(N)c23)ccc1NC(=O)OC(C)(C)C [Compound 62] | IC50 (PC3 cells): 10.1 nM |
| ≤ 10 | CC(C)(C)OC(=O)Nc1ccc(-c2nn(CCN3CCC(C#N)CC3)c3ncnc(N)c23)c2c1OCO2 [Compound 46] |  |
| ≤ 10 | CN(C)C1CCN(CCn2nc(-c3ccc(NC(=O)OC4(C)CCC4)c4c3OCO4)c3c(N)ncnc32)CC1 [Compound 5] | IC50 (PC3 cells): 4.2 nM |
| ≤ 10 | CC(C)(C)OC(=O)Nc1ccc(-c2nn(CCN3CCC(N4CCCC4)CC3)c3ncnc(N)c23)c2c1OCO2 [Compound 37] | IC50 (PC3 cells): 11.7 nM |
| ≤ 10 | CN(C)C1CCN(CCn2nc(-c3ccc(NC(=O)OC4CC(F)(F)C4)c4c3OCO4)c3c(N)ncnc32)CC1 [Compound 12] |  |
| ≤ 10 | COC1CCN(CCn2nc(-c3ccc(NC(=O)OC(C)(C)C)c4c3OCO4)c3c(N)ncnc32)CC1 [Compound 58] |  |
| ≤ 10 | CN(C)C1CCN(CCn2nc(-c3ccc(NC(=O)OC4COC4)c4c3OCO4)c3c(N)ncnc32)CC1 [Compound 14] |  |
| ≤ 10 | COc1cc(-c2nn(CCN3CCC(N(C)C)CC3)c3ncnc(N)c23)ccc1NC(=O)OC1CCC1 [Compound 60] |  |
| ≤ 10 | CN(C)[C@@H]1CCN(CCn2nc(-c3ccc(NC(=O)OC(C)(C)C)c4c3OCO4)c3c(N)ncnc32)C1 [Compound 39] |  |
| ≤ 10 | COc1cc(-c2nn(CCN3CCC(N(C)C)CC3)c3ncnc(N)c23)ccc1NC(=O)OC12CC(C1)C2 [Compound 65] |  |
| ≤ 10 | COc1cc(-c2nn(CCN3CCC(N(C)C4CC4)CC3)c3ncnc(N)c23)ccc1NC(=O)OC1(C)CC1 [Compound 69] | IC50 (PC3 cells): 12.5 nM |
| ≤ 10 | CN1CC(OC(=O)Nc2ccc(-c3nn(CCN4CCC(N5CCC5)CC4)c4ncnc(N)c34)c3c2OCO3)C1 [Compound 48] |  |
|  | COc1cc(-c2nn(CCN3CCC(N(C)C)CC3)c3ncnc(N)c23)ccc1NC(=O)OC(C)(C)C [Compound A, reference compound] | Initial purity [1]: 96.18%; Purity after stirring in an aqueous hydrochloric acid solution with a pH of 2 for 0.5 h [1]: Complete degradation; AUC(0-t) ([2]; oral administration 10 mg/kg): 1440 ng·h/mL; Cmax ([2]; oral administration 10 mg/kg): 211 ng/mL; bioavailability ([2]; oral administration 10 mg/kg): 42.9%; half-life ([2]; oral administration 10 mg/kg): 5.7 h; AUC(0-t) ([2]; iv, injection 2 mg/kg): 682 ng·h/mL; clearance ([2]; iv, injection 2 mg/kg): 775 mL/min/kg; half-life ([2]; iv, injection 2 mg/kg): 6.4 h; Vd ([2]; iv, injection 2 mg/kg): 15.2 L/kg |
| ≤ 10 | CN(C)C1CCN(CCn2nc(-c3ccc(NC(=O)OC(C)(C)C)c4c3OC(F)(F)O4)c3c(N)ncnc32)CC1 [Compound 51] |  |
| ≤ 10 | COc1cc(-c2nn(CCN3CCC(N(C)C)CC3)c3ncnc(N)c23)ccc1NC(=O)OC1(C)CC1 [Compound 59] | Initial purity [1]: 96.35%; Purity after stirring in an aqueous hydrochloric acid solution with a pH of 2 for 0.5 h [1]: 96.16%; AUC(0-t) ([2]; oral administration 10 mg/kg): 491 ng·h/mL; Cmax ([2]; oral administration 10 mg/kg): 88.9 ng/mL; bioavailability ([2]; oral administration 10 mg/kg): 32.1%; half-life ([2]; oral administration 10 mg/kg): 5.3 h; AUC(0-t) ([2]; iv, injection 2 mg/kg): 300 ng·h/mL; clearance ([2]; iv, injection 2 mg/kg): 1770 mL/min/kg; half-life ([2]; iv, injection 2 mg/kg): 5.9 h; Vd ([2]; iv, injection 2 mg/kg): 35.6 L/kg; IC50 (PC3 cells): 5.3 nM; TGI (tumor growth inhibition) ([3]; day 17, oral once a day, 50 mg/kg (day 1-day 7), 80 mg/kg (day 8-day 18)): 53%; Tumor volume on day 17 of treatment ([3]; nude mice, oral once a day, 50 mg/kg (day 1-day 7), 80 mg/kg (day 8-day 18)): 318 mm^3; Tumor volume on day 1 of treatment ([3]; nude mice, oral once a day, baseline day 1): 120 mm^3 |
| ≤ 10 | CN(C)CCC1CCN(CCn2nc(-c3ccc(NC(=O)OC(C)(C)C)c4c3OCO4)c3c(N)ncnc32)CC1 [Compound 44] |  |
| ≤ 10 | CN(C)[C@H]1CCN(CCn2nc(-c3ccc(NC(=O)OC(C)(C)C)c4c3OCO4)c3c(N)ncnc32)C1 [Compound 38] |  |
| 10 to 50 | CN(C)C1CCN(CCn2nc(-c3cnc(NC(=O)OC(C)(C)C)c4c3OCO4)c3c(N)ncnc32)CC1 [Compound 19] |  |

| IC50 (recombinant protein Src) [nM] | Compound | other results |
| --- | --- | --- |
| ≤ 10 | CN1CCN(C2CCN(CCn3nc(-c4ccc(NC(=O)OC(C)(C)C)c5c4OCO5)c4c(N)ncnc43)CC2)CC1 [Compound 47] |  |
| ≤ 10 | CN(C)CC1CCN(CCn2nc(-c3ccc(NC(=O)OC(C)(C)C)c4c3OCO4)c3c(N)ncnc32)CC1 [Compound 43] |  |
| ≤ 10 | CN(C)C1CCN(CCn2nc(-c3ccc(NC(=O)OC4(C)CC4)c4c3OCO4)c3c(N)ncnc32)CC1 [Compound 3] | IC50 (PC3 cells): 4.8 nM |
| ≤ 10 | CN(C)C1CCN(CCn2nc(-c3ccc(NC(=O)OC4CCC4)c4c3OCO4)c3c(N)ncnc32)CC1 [Compound 4] |  |
| ≤ 10 | CN1CCC2(CC1)CCN(CCn1nc(-c3ccc(NC(=O)OC(C)(C)C)c4c3OCO4)c3c(N)ncnc31)CC2 [Compound 49] |  |
| ≤ 10 | CN(C)CCN1CCN(CCn2nc(-c3ccc(NC(=O)OC(C)(C)C)c4c3OCO4)c3c(N)ncnc32)CC1 [Compound 42] |  |
| 10 to 50 | CCOC(=O)Nc1ccc(-c2nn(CCN3CCC(N(C)C)CC3)c3ncnc(N)c23)c2c1OCO2 [Compound 9] |  |
| 10 to 50 | CN(C)C1CCN(CCn2nc(-c3cc(F)c(NC(=O)OC(C)(C)C)c4c3OCO4)c3c(N)ncnc32)CC1 [Compound 17] |  |
| ≤ 10 | CN(C)C1CCN(CCn2nc(-c3ccc(NC(=O)OC45CC(C4)C5)c4c3OCO4)c3c(N)ncnc32)CC1 [Compound 7] |  |
| ≤ 10 | CN(C)C1CCN(CCn2nc(-c3ccc(NC(=O)OC4C5CC4C5)c4c3OCO4)c3c(N)ncnc32)CC1 (stereo not shown) [Compound 6] |  |
| 10 to 50 | CN(C)C1CCN(CCn2nc(-c3ccc(NC(=O)OC4CCCC4)c4c3OCO4)c3c(N)ncnc32)CC1 [Compound 13] |  |
| 10 to 50 | CC(C)OC(=O)Nc1ccc(-c2nn(CCN3CCC(N(C)C)CC3)c3ncnc(N)c23)c2c1OCO2 [Compound 8] |  |
| ≤ 10 | COc1cc(-c2nn(CCN3CCC(N(C)C4CC4)CC3)c3ncnc(N)c23)ccc1NC(=O)OC1(C)CCC1 [Compound 68] | IC50 (PC3 cells): 15.2 nM |
| ≤ 10 | COc1cc(-c2nn(CCN3CCC(N(C)C)CC3)c3ncnc(N)c23)ccc1NC(=O)OC1C2CC1C2 (stereo not shown) [Compound 64] |  |
| ≤ 10 | CN(C)C1CCN(CCn2nc(-c3ccc(NC(=O)OC4CC4)c4c3OCO4)c3c(N)ncnc32)CC1 [Compound 2] |  |
| ≤ 10 | CN(C)C1CCN(CCn2nc(-c3ccc(NC(=O)OC(C)(C)C)c4c3OCO4)c3c(N)ncnc32)CC1 [Compound 1] | IC50 (PC3 cells): 3.5 nM |
| ≤ 10 | COc1cc(-c2nn(CCN3CCC(N(C)C)CC3)c3ncnc(N)c23)ccc1NC(=O)OC1CC1 [Compound 63] |  |
| ≤ 10 | CC(C)(C)OC(=O)Nc1ccc(-c2nn(CCN3CCC(N4CCOCC4)CC3)c3ncnc(N)c23)c2c1OCO2 [Compound 57] |  |
| ≤ 10 | COc1cc(-c2nn(CCN3CCC(N(C)C)CC3)c3ncnc(N)c23)ccc1NC(=O)OC1CC(F)(F)C1 [Compound 70] |  |
| ≤ 10 | CN(C)CCN(C)CCn1nc(-c2ccc(NC(=O)OC(C)(C)C)c3c2OCO3)c2c(N)ncnc21 [Compound 50] |  |
| ≤ 10 | COc1cc(-c2nn(CCN3CCC(N(C)C)CC3)c3ncnc(N)c23)ccc1NC(=O)OC1(C)CCC1 [Compound 61] | IC50 (PC3 cells): 5.6 nM |
| ≤ 10 | CN(C)C1CCN(CCCn2nc(-c3ccc(NC(=O)OC(C)(C)C)c4c3OCO4)c3c(N)ncnc32)CC1 [Compound 52] |  |
